Measured values published in US20080107661A1, “MUC1 and ABL” (Dana-Farber Cancer Institute, Inc., priority 2006, published 2008).

Legend:
Assay type in all cases: cell-based, human
c-Abl [1] = experiment: Nuclear targeting of c-Abl in HCT116/vector, HCT116/MUC1 and mutant cells after CDDP
Excerpt: (§1) Cell culture. Human HeLa cervical cancer cells, HCT116/vector (HCT116 colorectal carcinoma cells stably transfected with an empty vector), HCT116/MUC1 (HCT116 colorectal carcinoma cells stably transfected with an expression vector encoding a MUC1 polypeptide), HCT116/MUC1(Y46F) (HCT116 colorectal carcinoma cells stably transfected with an expression vector encoding a mutant MUC1 polypeptide containing an amino acid substitution at position 46 changing a tyrosine (Y) to phenylalanine (F)) colon cancer cells (Ren et al., (2002) J. Biol. Chem. 277: 17616-17622) and 293 cells were cultured in Dulbecco's modified medium with 10% heat-inactivated fetal bovine serum, 100 units/ml penicillin, 100 μg/ml streptomycin and 2 mM L-glutamine. Human ZR-75-1/vector (ZR-75-1 breast cancer cells stably transfected with an empty vector) and ZR-75-1/MUC1siRNA (ZR-75-1 breast cancer cells stably transfected with an expression vector encoding an siRNA specific for MUC1) breast cancer cells (Ren et al., (2004) Cancer Cell 5:163-175) were grown in RPMI1640 medium containing 10% heat-inactivated fetal bovine serum and antibiotics. Cells were treated with 1 μM adriamycin (ADR; Calbiochem), 100 μM cisplatin (CDDP; Sigma) or 10 μM STI571 (Gleevec; Novartis, Basel, Switzerland).
(§2) Subcellular fractionation. Nuclear fractions were prepared as described (Kharbanda et al., (1996) Cancer Res. 56:3617-3621). Cytosolic fractions were prepared as described (Hill et al., (2004) EMBO J. 23:2134-2145). Cell membrane fractions were prepared with the Plasma Membrane Extraction Kit (BioVision Research Products, Mountain View, Calif.). Mitochondria were purified as described (Ren et al., (2004) Cancer Cell 5:163-175; Ren et al., (2006) Oncogene 25:20-31).
(§3) Immunoprecipitations and immunoblot analysis. Cell lysates were prepared as described (Kharbanda et al., (1995) Nature 376:785-788); Yoshida et al., (2005) Nat. Cell Biol. 7:278-285). Soluble proteins were incubated with anti-MUC1-N (Kufe et al., (1984) Hybridoma 3:223-232), anti-MUC1-C (Ab5; Neomarker, Montreal, Quebec), anti-Flag (Sigma, St. Louis, Mo.), anti-c-Abl (Ab3; Oncogene, San Diego, Calif.) or anti-14-3-3 (Abcam Inc., Cambridge, Mass.) antibodies for 2 hours at 4° C., followed by precipitation with protein G-Sepharose beads for 1 hour. […] Intensity of the signals was determined by densitometric scanning. Statistical significance was determined by the Student's t-test.

c-Abl [2] = experiment: Analysis of c-Abl kinase activity (anti-c-Abl immunoprecipitates, Crk(120-225), [γ-32P]ATP); details: HCT116 cells; CDDP, 1 hour
Protocol: Analysis of c-Abl kinase activity. Nuclear lysates were immunoprecipitated with anti-c-Abl (K-12) antibodies as described (Kharbanda et al., (1997) Nature 386:732-735). The precipitates were resuspended in kinase buffer (20 mM HEPES, pH 7.4, 10 mM MgCl2) containing [γ-^32P]ATP, GST-Crk(120-225) for 20 minutes at 30° C. The reaction products were analyzed by SDS-PAGE and autoradiography.

c-Abl [3] = experiment: Nuclear and cytosolic c-Abl in ZR-75-1/vector and ZR-75-1/MUC1siRNA cells after CDDP (fractionation, immunoblot)
Excerpt: as §1, §2
Immunoprecipitations and immunoblot analysis. Cell lysates were prepared as described (Kharbanda et al., (1995) Nature 376:785-788); Yoshida et al., (2005) Nat. Cell Biol. 7:278-285). […] Intensity of the signals was determined by densitometric scanning. Statistical significance was determined by the Student's t-test.

c-Abl [4] = experiment: Nuclear and cytosolic c-Abl in HeLa/vector and HeLa/MUC1 cells after genotoxic agents (subcellular fractionation, immunoblot); details: 2 hours
Excerpt: as §1, §2, §3

For [NH2][Pt]([NH2])([Cl])[Cl] [CDDP, cisplatin], the “CDDP-induced targeting of cytosolic c-Abl to the nucleus” value (c-Abl [1]; HCT116/MUC1(Y46F) cells, CDDP, 0, 2 or 4 hours) was “blocked CDDP-induced targeting of cytosolic c-Abl to the nucleus”, the “effect of MUC1(Y60F) on CDDP-induced targeting of c-Abl to the nucleus” value (c-Abl [1]; HCT116/MUC1(Y60F) cells, CDDP, 2 and 4 hours) was “little if any effect” and the “nuclear targeting of c-Abl” value (c-Abl [1]; HCT116/MUC1 cells, CDDP, 2 and 4 hours) was “blocked nuclear targeting of c-Abl”. For the same compound, the “nuclear targeting of c-Abl” value (c-Abl [1]; HCT116/vector cells, CDDP, 2 and 4 hours) was “c-Abl was targeted to the nucleus”, the c-Abl kinase activity (c-Abl [2]) was “induction of c-Abl activity” and the “cytosolic c-Abl” value (c-Abl [3]; ZR-75-1/MUC1siRNA cells) was “decreased”. For the same compound, the “increase of nuclear targeting of c-Abl” value (c-Abl [3]; ZR-75-1/MUC1siRNA cells silenced for MUC1, 2 and 4 hours) was “about 6 fold”, the “nuclear targeting of c-Abl” value (c-Abl [3]; ZR-75-1/vector cells, 2 and 4 hours) was “no detectable targeting of c-Abl to the nucleus” and the “cytosolic c-Abl” value (c-Abl [4]; HeLa/vector cells, CDDP) was “decrease in cytosolic c-Abl”. The “nuclear targeting of c-Abl” value (c-Abl [4]; HeLa/vector versus HeLa/MUC1 cells, 100 μM CDDP) was “MUC1 attenuates nuclear targeting of c-Abl”.
